Data: PubChem BioAssay AID179 (DTP/NCI, 2004)
pEC50, pIC50: −log10 of the molar value. Calls of active or inactive are those of the source.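 How the source made its calls: active means compounds giving half or more protection of infected cells from virus-caused growth loss, again on retest; inactive means the rest.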

System: CEM cells HIV-1 protection, formazan growth assay
Test: NCI AIDS Antiviral Assay
Settings: for pIC50: measured here: growth of uninfected CEM cells
Summary of the method: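 Category rules: moderately active means at least 50% protection on retest, and confirmed active means 100% protection reproducibly. The underlying data came from a formazan growth assay in HIV-1-infected CEM cells.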

O=S(=O)(O)c1ccc2cc(S(=O)(=O)O)ccc2c1
outcome: inactive

O=C1c2ccccc2C(=O)N1CC(O)COc1cccc2ccccc12 (stereo not given)
pEC50: < 3.70 | pIC50: < 3.70

Cc1cccc(C(=O)O)c1C(=O)c1cccc2ccccc12
outcome: inactive

CCCCCC(=O)OCCOCCOCCOCCOCCOCc1ccccc1
outcome: inactive

CC(=O)N1[C@H](C(=O)O)CS[C@H]1c1ccc(F)cc1
outcome: inactive

COP(=O)(CC(=O)C1OC(C)(C)OC1C(O)COCc1ccccc1)OC (stereo not given)
pEC50: < 3.49 | pIC50: < 3.49

CN(/N=C/c1ccccc1O)c1ccc2ccccc2n1
pEC50: < 3.70 | pIC50: 3.90

CC(=O)OC1CCC23COC(CC(C)C2C)C3(Cl)C1 (stereo not given)
pEC50: < 3.70 | pIC50: < 3.70

CCSc1nc(N)c2c(-c3ccc(OC)c(OC)c3)c3c(nc2n1)CCCC3
pEC50: < 3.70 | pIC50: < 3.70

COc1ccc(Cc2nc3ccccc3s2)cc1OC
pEC50: < 3.90 | pIC50: 4.86

CC12C(=O)OCC1C1CCC2C1 (stereo not given)
pEC50: < 3.27 | pIC50: < 3.27

CCOC(=O)C(Cc1c(C=O)[nH]c2ccccc12)(NC(=O)c1ccccc1)C(=O)OCC
outcome: inactive

Brc1cccc(C2SCc3nc4ccccc4n32)c1 (stereo not given)
outcome: inactive

CC(=O)Nc1ccc([As](=O)(O)O)cc1C(=O)O
pEC50: < 3.70 | pIC50: < 3.70

Cc1ccc(NC(=O)CC(=O)N2N=C(N(CCC#N)c3cccc(C)c3)CC2c2ccccc2)cc1 (stereo not given)
pEC50: < 4.12 | pIC50: < 4.12

COc1ccc(NC(=S)Nc2ccccn2)cc1
pEC50: < 3.70 | pIC50: < 3.70

CCOC(=O)NC(=O)c1cn(CCSCCOC(=O)NCCCCCCNC(=O)OCCSCCn2cc(C(=O)NC(=O)OCC)c(=O)[nH]c2=O)c(=O)[nH]c1=O
outcome: inactive

CC(=O)NC1C(OCc2ccccc2)OC(CO)C(O)C1OC(C)C(=O)NC(C(=O)NC(CCC(=O)NCCCCNc1c2ccccc2nc2cccc([N+](=O)[O-])c12)C(N)=O)C(C)C (stereo not given)
pEC50: < 4.00 | pIC50: 5.95

O=C1C(c2ccccc2)=[N+]([O-])c2cc([N+](=O)[O-])ccc21
outcome: inactive

Cc1ccc2nc(NC(=S)NCCCCNC(=S)Nc3ccc4cc(C)ccc4n3)ccc2c1
pEC50: < 4.97 | pIC50: < 4.97

CCOC(=O)C(CCSC)(CCSC)C(=O)OCC
pEC50: < 3.70 | pIC50: < 3.70

COC(=O)c1ccc2n1C1CC3CC(CC2C3)C1
pEC50: < 3.70 | pIC50: 4.06

O=C1c2c(O)cccc2C(C(=O)CCCCC(=O)C2c3cccc(O)c3C(=O)c3c(O)cccc32)c2cccc(O)c21
pEC50: < 5.17 | pIC50: < 5.17

CC(SC(=S)Nc1cccc(F)c1)C(=O)O (stereo not given)
outcome: inactive

CCOC(=O)C(=O)Nc1c(CC)cccc1C(C)CC (stereo not given)
pEC50: < 3.19 | pIC50: < 3.19

CC1CN=C(Nc2ccccc2)S1 (stereo not given)
pEC50: < 3.70 | pIC50: < 3.70

OCC1=CC(NC2CC(CO)C(O)C(O)C2O)C(O)C(O)C1O (stereo not given)
outcome: inactive

c1cc2cc(c1)CN1CCNCCN(CCNCC1)Cc1cccc(c1)CN1CCNCCN(CCNCC1)C2
pEC50: < 4.30 | pIC50: < 4.30

COC(=O)CCc1ccc2c(c1)CCC2
pEC50: < 3.70 | pIC50: < 3.70

COc1cccc(C2c3cc4c(cc3OC(NNc3ccccc3)C2C)OCO4)c1OC (stereo not given)
pEC50: < 3.70 | pIC50: 5.09

COC1=CC(=O)c2ccc(C(C)C)cc2C1(C)C1=NC(C)(C)CO1 (stereo not given)
pEC50: < 3.82 | pIC50: < 3.82

CN(CCN1C(=O)c2cccc3cc([N+](=O)[O-])cc(c23)C1=O)CCN1C(=O)c2cccc3cc([N+](=O)[O-])cc(c23)C1=O
pEC50: < 5.04

O=c1[nH]c(=O)n(COCc2ccccc2)cc1Nc1ccc(Br)cc1
pEC50: < 3.70 | pIC50: < 3.70

c1ccc(Cn2cc(CCc3ccncc3)c3ccccc32)cc1
pEC50: < 3.70 | pIC50: 4.55

CC(=O)C1=C(O)C(c2ccccc2)c2ccccc21 (stereo not given)
pEC50: < 3.41 | pIC50: 4.01

Clc1nc(Cl)nc(Nc2ncccn2)n1
pEC50: < 3.70 | pIC50: < 3.70

CCN(CC)c1c(C(=O)/C=C/c2ccc(F)cc2)c(-c2ccccc2)nn(C)c1=O
pEC50: < 4.47 | pIC50: 5.14

COc1cccc(C2NC(=O)c3c(n[nH]c3N)S2)c1O (stereo not given)
pEC50: < 3.70 | pIC50: < 3.70

BrC1CCCCCC(Br)C12OCCO2 (stereo not given)
pEC50: < 4.24 | pIC50: < 4.24

CCOC(=O)CN=C1Nc2ccccc2C(=O)N2CSCC12 (stereo not given)
pEC50: < 3.70 | pIC50: 3.80

CCOC(=O)c1cc2c(cn1)[nH]c1cccc(N)c12
pEC50: < 3.58 | pIC50: < 3.58

CCCCCCCCCCCCCCCCOC(=O)C(C(=O)OCCCCCCCCCCCCCCCC)[N+](C)(C)CCOC(C)=O
outcome: inactive

N#CC1CC(c2ccccc2)=NC1c1ccccc1 (stereo not given)
pEC50: < 4.53 | pIC50: < 4.53

OCC1OC(O)C(N=C/C=C/c2ccccc2)C(O)C1O (stereo not given)
pEC50: < 3.70 | pIC50: 4.64

NC(CCc1nc(-c2ccccc2)cs1)C(=O)O (stereo not given)
outcome: inactive

Clc1ccc(C2=NCON=C2c2ccc(Cl)cc2)cc1
outcome: inactive

CC(=O)Oc1c(C)cc2c(c1C)C(C)(C)CN2C(=O)C(C)(C)C
pEC50: < 3.70 | pIC50: 4.18
